Source: patent US10894807B2 (Siemens Medical Solutions USA, Inc., priority 2011, dated 2021)

Target: human PSMA (Homo sapiens (Human), UniProt Q04609)
Test: Enzymatic assay for in vitro evaluation of PSMA inhibitors (fluorescent assay of PSMA activity, NAAG substrate, OPA detection of glutamate)
Assay type: biochemical
Settings: not given

Chain of human PSMA (Q04609 whole entry): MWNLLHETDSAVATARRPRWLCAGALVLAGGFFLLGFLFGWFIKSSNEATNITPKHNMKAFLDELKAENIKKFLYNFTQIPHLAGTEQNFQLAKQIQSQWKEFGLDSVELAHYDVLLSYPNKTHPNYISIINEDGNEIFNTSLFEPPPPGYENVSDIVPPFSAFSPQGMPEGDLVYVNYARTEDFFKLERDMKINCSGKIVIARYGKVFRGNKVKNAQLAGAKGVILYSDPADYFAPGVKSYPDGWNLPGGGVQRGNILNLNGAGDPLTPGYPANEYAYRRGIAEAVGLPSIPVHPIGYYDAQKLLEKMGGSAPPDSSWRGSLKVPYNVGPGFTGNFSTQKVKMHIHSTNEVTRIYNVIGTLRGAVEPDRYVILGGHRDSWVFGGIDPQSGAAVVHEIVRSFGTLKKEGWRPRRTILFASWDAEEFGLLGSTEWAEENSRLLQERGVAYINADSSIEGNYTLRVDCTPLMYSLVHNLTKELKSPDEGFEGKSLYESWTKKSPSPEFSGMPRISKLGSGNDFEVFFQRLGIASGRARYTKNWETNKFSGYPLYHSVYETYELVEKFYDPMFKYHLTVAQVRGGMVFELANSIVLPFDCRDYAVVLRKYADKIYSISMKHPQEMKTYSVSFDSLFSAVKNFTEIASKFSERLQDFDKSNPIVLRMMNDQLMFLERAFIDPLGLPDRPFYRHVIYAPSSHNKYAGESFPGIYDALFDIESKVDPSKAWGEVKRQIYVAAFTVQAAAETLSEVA

| Compound | Ki | PSMA Blkg % (10 μM) |
| --- | --- | --- |
| O=C(O)CC[C@H](NC(=O)N(O)[C@@H](CCCCNC(=O)Cn1cc(CCCF)nn1)C(=O)O)C(=O)O [P166, (S)-2-(3-((S)-1-Carboxy-5-(2-(4-(3-fluoropropyl)-1H-1,2,3-triazol-1-yl)acetamido)pentyl)-3-hydroxyureido)pentanedioic Acid] | > 375 nM |  |
| O=C(O)CC[C@H](NC(=O)N(O)[C@@H](CCCCNC(=O)c1ccc(OCCF)cc1)C(=O)O)C(=O)O [P167, (S)-2-(3-((S)-1-Carboxy-5-(4-(2-fluoroethoxy)benzamido)pentyl)-3-hydroxyureido)pentanedioic Acid] | > 657 nM |  |
| O=C(O)CC[C@H](NC(=O)N(O)[C@@H](CCCCNC(=O)c1ccc(F)cc1)C(=O)O)C(=O)O [P169, (S)-2-(3-((S)-1-Carboxy-5-(4-fluorobenzamido)pentyl)-3-hydroxyureido)pentanedioic Acid] | 156 nM |  |
| CN(C(=O)N[C@@H](CCC(=O)O)C(=O)O)[C@@H](CCCCn1cc(COCCOCCNc2ccc([N+](=O)[O-])cc2[N+](=O)[O-])nn1)C(=O)O [P172, (S)-2-(3-((S)-1-Carboxy-5-(4-((2-(2-(2,4-dinitrophenylamino)ethoxy)ethoxy)methyl)-1H-1,2,3-triazol-1-yl)pentyl)-3-methylureido)pentanedioic Acid] | 313 nM |  |
| CC(=O)Oc1ccc2c(c1)Oc1cc(OC(C)=O)ccc1C21OC(=O)c2ccc(C(=O)NCCCC[C@H](NC(=O)N[C@@H](CCC(=O)O)C(=O)O)C(=O)O)cc21 [P185, (S)-2-(3-((S)-1-Carboxy-5-(3′,6′-diacetoxy-3-oxo-3H-spiro[isobenzofuran-1,9′-xanthen]-6-ylcarboxamido)pentyl)ureido)pentanedioic Acid] |  | 99% |

Now from value to molecule, other results behind:

| Ki | Compound | PSMA Blkg % (10 μM) |
| --- | --- | --- |
| > 531 nM | O=C(O)CC[C@@H](C(=O)O)N(O)C(=O)N[C@@H](CCCCNC(=O)c1ccc(F)cc1)C(=O)O [P162, (S)-2-(3-((S)-1-Carboxy-5-(4-fluorobenzamido)pentyl)-1-hydroxyureido)pentanedioic Acid] |  |
| > 407 nM | O=C(O)CC[C@H](NC(=O)N(O)[C@@H](CCCCNC(=O)c1ccc(NC(=O)c2ccc(F)nc2)cc1)C(=O)O)C(=O)O [P164, (S)-2-(3-((S)-1-Carboxy-5-(4-(6-fluoronicotinamido)benzamido)pentyl)-3-hydroxyureido)pentanedioic Acid] |  |

Same assay, conditions: compound at 10 μM

| Compound | PSMA Blkg % (10 μM) |
| --- | --- |
| CN(C(=O)[C@H](CC(=O)O)NC(=O)c1ccc(-n2cc(CCCF)nn2)cc1)[C@@H](CCC(=O)O)C(=O)O [P159, (S)-2-((S)-3-Carboxy-2-(4-(4-(3-fluoropropyl)-1H-1,2,3-triazol-1-yl)benzamido)-N-methylpropanamido)pentanedioic Acid] | 39% |
| CN(C(=O)N[C@@H](CCC(=O)O)C(=O)O)[C@@H](CCCCNC(=O)c1ccc(OCCF)cc1)C(=O)O [P161] | 96% |
| O=C(O)/C=C/C(=O)N[C@@H](CCC(=O)O)C(=O)O [P165] | 11% |
| O=C(O)CC[C@H](NC(=O)N(O)[C@@H](CCCCNC(=O)Cn1cc(CCCF)nn1)C(=O)O)C(=O)O [P166, (S)-2-(3-((S)-1-Carboxy-5-(2-(4-(3-fluoropropyl)-1H-1,2,3-triazol-1-yl)acetamido)pentyl)-3-hydroxyureido)pentanedioic Acid] | 87% |
| O=C(O)CC[C@H](NC(=O)N(O)[C@@H](CCCCNC(=O)c1ccc(OCCF)cc1)C(=O)O)C(=O)O [P167, (S)-2-(3-((S)-1-Carboxy-5-(4-(2-fluoroethoxy)benzamido)pentyl)-3-hydroxyureido)pentanedioic Acid] | 93% |
| C#Cc1ccc(C(=O)NCCCC[C@@H](C(=O)O)N(O)C(=O)N[C@@H](CCC(=O)O)C(=O)O)cc1 [P168, (S)-2-(3-((S)-1-Carboxy-5-(4-ethynylbenzamido)pentyl)-3-hydroxyureido)pentanedioic Acid] | 98% |
| O=C(O)CC[C@H](NC(=O)N(O)[C@@H](CCCCNC(=O)c1ccc(F)cc1)C(=O)O)C(=O)O [P169, (S)-2-(3-((S)-1-Carboxy-5-(4-fluorobenzamido)pentyl)-3-hydroxyureido)pentanedioic Acid] | 79% |
| CN(C(=O)[C@H](CC(=O)O)NC(=O)CCc1ccc(-n2cc(CCCF)nn2)cc1)[C@@H](CCC(=O)O)C(=O)O [P170, (S)-2-((S)-3-Carboxy-2-(3-(4-(4-(3-fluoropropyl)-1H-1,2,3-triazol-1-yl)phenyl)propanamido)-N-methylpropanamido)pentanedioic Acid] | 58% |
| O=C(O)CC[C@H](NC(=O)N(O)C(CCCCNC(=O)c1ccc(NC(=O)c2ccc(F)cc2)cc1)C(=O)O)C(=O)O (stereo partly shown) [P171] | 87% |
| CN(C(=O)N[C@@H](CCC(=O)O)C(=O)O)[C@@H](CCCCn1cc(CCCF)nn1)C(=O)O [P173, (S)-2-(3-((S)-1-Carboxy-5-(4-(3-fluoropropyl)-1H-1,2,3-triazol-1-yl)pentyl)-3-methylureido)pentanedioic Acid] | 31% |
| CN(C(=O)N[C@@H](CCC(=O)O)C(=O)O)[C@@H](CCCCNC(=O)NCc1ccccc1)C(=O)O [P175, (9S,13S)-10-Methyl-3,11-dioxo-1-phenyl-2,4,10,12-tetraazapentadecane-9,13,15-tricarboxylic Acid] | 18% |
| Cc1ccc(S(=O)(=O)NCCCC[C@@H](C(=O)O)N(C)C(=O)N[C@@H](CCC(=O)O)C(=O)O)cc1 [P177, (S)-2-(3-((S)-1-Carboxy-5-(4-methylphenylsulfonamido)pentyl)-3-methylureido)pentanedioic Acid] | 38% |
| O=C(O)CC[C@@H](C(=O)O)N(O)S(=O)(=O)NC(=O)OCc1ccccc1 [P179, (S)-2-((N-((Benzyloxy)carbonyl)sulfamoyl)(hydroxy)amino)pentanedioic Acid] | 4% |
| NS(=O)(=O)N(OC(=O)OCc1ccccc1)[C@@H](CCC(=O)O)C(=O)O [P180] | 5% |
| [N-]=[N+]=Nc1ccc(CCCC(=O)NS(=O)(=O)N[C@@H](CCC(=O)O)C(=O)O)cc1 [P181, (S)-2-((N-(4-(4-Azidophenyl)butanoyl)sulfamoyl)amino)pentanedioic Acid] | 39% |
| O=C(O)CC[C@H](NC(=O)N(O)[C@@H](CCCCNC(=O)c1ccc(F)nc1)C(=O)O)C(=O)O [P182, (S)-2-(3-((S)-1-Carboxy-5-(6-fluoronicotinamido)pentyl)-3-hydroxyureido)pentanedioic Acid] | 92% |

Other lines, results leading:

| PSMA Blkg % (10 μM) | Compound |
| --- | --- |
| 79% | O=C(O)CC[C@@H](C(=O)O)N(O)C(=O)N[C@@H](CCCCNC(=O)c1ccc(F)cc1)C(=O)O [P162, (S)-2-(3-((S)-1-Carboxy-5-(4-fluorobenzamido)pentyl)-1-hydroxyureido)pentanedioic Acid] |
| 0% | CN(C(=O)[C@H](CC(=O)O)NC(=O)c1ccc(F)cc1)[C@@H](CCC(=O)O)C(=O)O [P163, (S)-2-((S)-3-Carboxy-2-(4-fluorobenzamido)-N-methylpropanamido)pentanedioic Acid] |
| 80% | O=C(O)CC[C@H](NC(=O)N(O)[C@@H](CCCCNC(=O)c1ccc(NC(=O)c2ccc(F)nc2)cc1)C(=O)O)C(=O)O [P164, (S)-2-(3-((S)-1-Carboxy-5-(4-(6-fluoronicotinamido)benzamido)pentyl)-3-hydroxyureido)pentanedioic Acid] |
| 1% | CN(C(=O)[C@H](CC(=O)O)NC(=O)COCCNC(=O)c1ccc(F)cc1)[C@@H](CCC(=O)O)C(=O)O [P174, (S)-2-((S)-3-Carboxy-2-(2-(2-(4-fluorobenzamido)ethoxy)acetamido)-N-methylpropanamido)pentanedioic Acid] |
| 77% | CN(C(=O)N[C@@H](CCC(=O)O)C(=O)O)[C@@H](CCCCNC(=O)OCc1ccc([N+](=O)[O-])cc1)C(=O)O [P176, (9S,13S)-10-Methyl-1-(4-nitrophenyl)-3,11-dioxo-2-oxa-4,10,12-triazapentadecane-9,13,15-tricarboxylic Acid] |
| 1% | O=C(O)CC[C@H](NS(=O)(=O)NC(=O)OCc1ccccc1)C(=O)O [P178, (S)-2-((N-((Benzyloxy)carbonyl)sulfamoyl)amino)pentanedioic Acid] |
| 36% | [N-]=[N+]=NCCCCC(=O)NS(=O)(=O)N[C@@H](CCC(=O)O)C(=O)O [P183, (S)-2-((N-(5-Azidopentanoyl)sulfamoyl)amino)pentanedioic Acid] |
| 10% | CN(C(=O)N[C@@H](CCC(=O)O)C(=O)O)[C@@H](CCCCNCc1ccc(F)cc1)C(=O)O [P184, (S)-2-(3-((S)-1-Carboxy-5-(4-fluorobenzylamino)pentyl)-3-methylureido)pentanedioic Acid] |
